Source: US20250289822A1, “SOLID FORMS OF HIV INTEGRASE INHIBITORS” (priority 2024, published 2025)

Assay: Hygroscopicity by dynamic vapor sorption (DVS): water sorption/desorption as a function of relative humidity
Format: physicochemical
Experimental: Hygroscopicity was studied using dynamic vapor sorption (DVS, TA Q5000 SA, TA Instruments, New Castle, DE or DVS, DVS Intrinsic, Surface Measurement Systems, London, UK). […] The water sorption and desorption were studied as a function of relative humidity (RH) at 25° C. […] Data analysis was performed using Universal Analysis 2000 Version 4.7A (TA Instruments, New Castle, DE) for TA DVS runs and Microsoft Excel for SMS DVS runs.

- solid form change after the DVS experiment (material checked post DVS experiment): not have changed form
- water absorbed (DVS) (up to 95% RH at 25° C.): about 0.15%
Compound: C[C@@H]1C=C[C@H](C)N2CN1n1cc(C(=O)NCc3c(F)cc(F)cc3F)c(=O)c(O)c1C2=O [Compound of Formula I, Form I, (1S,2R,5S)-8-hydroxy-2,5-dimethyl-7,9-dioxo-N-(2,4,6-trifluorobenzyl)-2,5,7,9-tetrahydro-1,6-methanopyrido[1,2-b][1,2,5]triazonine-10-carboxamide]
